ChEMBL document CHEMBL2375211, “2-methoxyjuglone induces apoptosis in HepG2 human hepatocellular carcinoma cells and exhibits in vivo antitumor activity in a H22 mouse hepatocellular carcinoma model” (J Nat Prod, 2013)
Converted amounts (≈) assume the structure as drawn. The source made the active and inactive calls. No cut-off for these calls is given here.

How the values were obtained:
[1] = test system: HepG2; test: Cytotoxicity against human HepG2 cells assessed as decrease in cell viability at 1.6 to 8 ug/mL by MTT assay; type: functional, cell-based; settings: TDE = time-dependent effect
[2] = test system: HepG2; test: Induction of apoptosis in human HepG2 cells assessed as appearance of cell shrinkage at 4.8 to 8 ug/mL after 24 hrs by inverted microscopic analysis relative to control; type: functional, cell-based
[3] = test system: HepG2; test: Cell cycle arrest in human HepG2 cells assessed as accumulation at G2/M phase at 8 ug/mL after 24 hrs by propidium iodide staining-based flow cytometric analysis (reference value: 9%); type: functional
[4] = test system: HepG2; test: Induction of apoptosis in human HepG2 cells assessed as membrane damage at 4.8 to 8 ug/mL after 24 hrs by acridine orange/ethidium bromide staining-based fluorescence microscopic analysis; type: functional, cell-based
[5] = test system: HepG2; test: Cell cycle arrest in human HepG2 cells assessed as accumulation at G1 phase at 8 ug/mL after 24 hrs by propidium iodide staining-based flow cytometric analysis (reference value: 45%); type: functional
[6] = test system: HepG2; test: Cell cycle arrest in human HepG2 cells assessed as accumulation at G2/M phase at 1.6 ug/mL after 24 hrs by propidium iodide staining-based flow cytometric analysis (reference value: 9%); type: functional
[7] = test system: HepG2; test: Induction of apoptosis in human HepG2 cells assessed as increase in early apoptotic cells after 24 hrs by annexin V-FITC/propidium iodide staining-based FACS flow cytometric analysis; type: functional, cell-based
[8] = test system: H22; test: Antitumor activity against mouse H22 cells allografted in Kunming mouse assessed as decrease in tumor size at 0.5 to 1 mg/kg/day, ip administered 8 days measured after 10 days; type: functional, organism-based
[9] = test system: HepG2; test: Cell cycle arrest in human HepG2 cells assessed as accumulation at S phase at 6.4 ug/mL after 24 hrs by propidium iodide staining-based flow cytometric analysis (reference value: 46%); type: functional
[10] = test system: HepG2; test: Induction of apoptosis in human HepG2 cells assessed as increase in Bax level after 24 hrs by Western blot analysis; type: functional, cell-based
[11] = test system: HepG2; test: Cell cycle arrest in human HepG2 cells assessed as accumulation at S phase at 4.8 ug/mL after 48 hrs by propidium iodide staining-based flow cytometric analysis (reference value: 31%); type: functional
[12] = test system: H22; test: Antitumor activity against mouse H22 cells allografted in Kunming mouse assessed as decrease in weight of tumor mass at 1 mg/kg/day, ip administered 8 days measured after 10 days relative to control; type: functional; set-up: scale not given: the % may be the effect or the level left; settings: route intraperitoneal
[13] = test system: Mus musculus; test: Toxicity in Kunming mouse allografted with mouse H22 cells assessed as decrease in body weight at 0.25 to 1 mg/kg/day, ip measured every day for 8 days; type: organism-based; set-up: route intraperitoneal; settings: in vivo, 192 h
[14] = test system: HepG2; test: Cell cycle arrest in human HepG2 cells assessed as accumulation at sub-G1 phase at 4.8 ug/mL after 24 hrs by propidium iodide staining-based flow cytometric analysis (reference value: 4%); type: functional
[15] = test system: HepG2; test: Cytotoxicity against human HepG2 cells assessed as cell viability after 24 hrs by MTT assay; type: functional, cell-based; settings: HepG2, 24 h
[16] = test system: HepG2; test: Cell cycle arrest in human HepG2 cells assessed as accumulation at sub-G1 phase at 3.2 ug/mL after 24 hrs by propidium iodide staining-based flow cytometric analysis (reference value: 4%); type: functional
[17] = test system: HepG2; test: Cell cycle arrest in human HepG2 cells assessed as accumulation at sub-G1 phase at 1.6 ug/mL after 24 hrs by propidium iodide staining-based flow cytometric analysis (reference value: 4%); type: functional
[18] = test system: HepG2; test: Cell cycle arrest in human HepG2 cells assessed as accumulation at G1 phase at 3.2 ug/mL after 48 hrs by propidium iodide staining-based flow cytometric analysis (reference value: 64%); type: functional
[19] = test system: HepG2; test: Induction of apoptosis in human HepG2 cells assessed as mitochondrial cytochrome c-dependent caspase-9 activation at 1.6 to 4.8 ug/mL after 24 hrs by Western blot analysis; type: functional, cell-based
[20] = test system: HepG2; test: Cytotoxicity against human HepG2 cells assessed as decrease in cell viability after 24 to 72 hrs by MTT assay; type: functional, cell-based
[21] = test system: HepG2; test: Cell cycle arrest in human HepG2 cells assessed as accumulation at S phase at 6.4 ug/mL after 48 hrs by propidium iodide staining-based flow cytometric analysis (reference value: 31%); type: functional
[22] = test system: H22; test: Antitumor activity against mouse H22 cells allografted in Kunming mouse assessed as decrease in weight of tumor mass at 0.5 mg/kg/day, ip administered 8 days measured after 10 days relative to control; type: functional; set-up: scale not given: the % may be the effect or the level left; settings: route intraperitoneal
[23] = test system: HepG2; test: Cell cycle arrest in human HepG2 cells assessed as accumulation at sub-G1 phase at 6.4 ug/mL after 24 hrs by propidium iodide staining-based flow cytometric analysis (reference value: 4%); type: functional
[24] = test system: HepG2; test: Induction of apoptosis in human HepG2 cells assessed as nuclear condensation at 4.8 ug/mL after 24 hrs by acridine orange/ethidium bromide staining-based fluorescence microscopic analysis; type: functional, cell-based
[25] = test system: HepG2; test: Induction of apoptosis in human HepG2 cells assessed as appearance of membrane blebbing at 4.8 to 8 ug/mL after 24 hrs by inverted microscopic analysis relative to control; type: functional, cell-based
[26] = test system: HepG2; test: Cell cycle arrest in human HepG2 cells assessed as accumulation at G2/M phase at 8 ug/mL after 48 hrs by propidium iodide staining-based flow cytometric analysis (reference value: 5%); type: functional
[27] = test system: HepG2; test: Cell cycle arrest in human HepG2 cells assessed as accumulation at sub-G1 phase at 3.2 ug/mL after 48 hrs by propidium iodide staining-based flow cytometric analysis (reference value: 3%); type: functional
[28] = test system: HepG2; test: Cell cycle arrest in human HepG2 cells assessed as accumulation at G2/M phase at 4.8 ug/mL after 48 hrs by propidium iodide staining-based flow cytometric analysis (reference value: 5%); type: functional
[29] = test system: HepG2; test: Induction of apoptosis in human HepG2 cells assessed as apoptotic body formation at 8 ug/mL after 24 hrs by acridine orange/ethidium bromide staining-based fluorescence microscopic analysis; type: functional, cell-based
[30] = test system: HepG2; test: Cell cycle arrest in human HepG2 cells assessed as accumulation at sub-G1 phase at 1.6 ug/mL after 48 hrs by propidium iodide staining-based flow cytometric analysis (reference value: 3%); type: functional

For COC1=CC(=O)c2c(O)cccc2C1=O, which Activity [1] is on record?
Its Activity is “tde”.

What about the Activity [2] of the same molecule?
The Activity was “Active”.

And the Activity [3]?
The Activity was 0%.

And the Activity [4]?
Its Activity is “Active”.

And the Activity [5]?
Its Activity is 41%.

What about the Activity [6] of the same molecule?
The Activity was 1%.

And the Activity [7]?
The Activity was “Dose-dependent effect”.

And the Activity [8]?
The Activity was “Active”.

What about the Activity [9] of the same molecule?
The Activity was 61%.

What about the Activity [10] of the same molecule?
The Activity was “Dose-dependent effect”.

What about the Activity [11] of the same molecule?
Its Activity is 66%.

And the Activity [12]?
The Activity was 67%.

What about the Activity [13] of the same molecule?
The Activity was “Non-toxic”.

What about the Activity [14] of the same molecule?
Its Activity is 7%.

And the IC50 [15]?
The IC50 was 3.8 µg/mL (≈ 18.6 µM).

What about the Activity [16] of the same molecule?
The Activity was 2%.

What about the Activity [17] of the same molecule?
The Activity was 5%.

And the Activity [18]?
The Activity was 35%.

And the Activity [19]?
The Activity was “Active”.

What about the Activity [20] of the same molecule?
The Activity was “Dose-dependent effect”.

And the Activity [21]?
The Activity was 52%.

And the Activity [22]?
Its Activity is 56%.

And the Activity [23]?
Its Activity is 6%.

What about the Activity [24] of the same molecule?
The Activity was “Active”.

What about the Activity [25] of the same molecule?
The Activity was “Active”.

And the Activity [26]?
The Activity was 0%.

And the Activity [27]?
Its Activity is 4%.

And the Activity [28]?
Its Activity is 2%.

And the Activity [29]?
The Activity was “Active”.

And the Activity [30]?
Its Activity is 6%.
